Data from PMC4791841, “Nanomolar Inhibitors of Trypanosoma brucei RNA Triphosphatase” (mBio, 2016).
Where two headings read alike, the source gives them in different places.

Columns and labels:
MimiCE = biological target: T1, MimiCE (Acanthamoeba polyphaga mimivirus, UniProt Q5UQX1); assay: biochemical; type: biochemical; settings: for IC50/IC50 TbCet1, MimiCE: ratio in parentheses;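 as to all read-outs here: mimivirus capping enzyme triphosphatase ATPase reaction, radiolabeled ATP hydrolysis to Pi quantified by TLC after 10 min, normalized to no-inhibitor control with 5% DMSO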
T1 construct: the N-terminal RTPase domain (amino acids [aa] 1 to 237) of mimivirus capping enzyme (MimiCE); HisSmt3 (N, cleaved yes); made in house; host or cells: Escherichia coli

SceCet1 = biological target: T2, SceCet1 (Saccharomyces cerevisiae, UniProt O13297); assay: TLC assay for 32Pi release from [γ-32P]ATP, SceCet1; type: biochemical; settings: for IC50/IC50 TbCet1, SceCet1: ratio in parentheses
T2 construct: C-terminal catalytic domain (aa 241 to 539) of S. cerevisiae RTPase (SceCet1); made in house; host or cells: Escherichia coli

TbCet1 [1] = biological target: T3, TbCet1 (Trypanosoma brucei brucei, UniProt Q582T2); assay: TLC assay for 32Pi release from [γ-32P]ATP, TbCet1; settings: 2.2 nM TbCet1, 0.2 mM ATP, 2 mM Mn2+, 10 min 37°C
T3 sequence (Q582T2 1-253): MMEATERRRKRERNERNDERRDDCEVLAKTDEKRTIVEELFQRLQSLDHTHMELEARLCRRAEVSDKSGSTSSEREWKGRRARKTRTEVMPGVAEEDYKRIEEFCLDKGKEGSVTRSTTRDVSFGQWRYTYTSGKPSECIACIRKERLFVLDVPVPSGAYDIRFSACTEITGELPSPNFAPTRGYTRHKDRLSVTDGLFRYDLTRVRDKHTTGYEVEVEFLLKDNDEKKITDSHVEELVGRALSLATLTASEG

TbCet1 [2] = biological target: T3, TbCet1; assay: colorimetric malachite green HTS assay of Pi release from ATP by TbCet1
CthTTM [3] = biological target: T4, CthTTM (Acetivibrio thermocellus, UniProt A3DIJ8); assay: TLC assay for 32Pi release from [γ-32P]ATP, CthTTM; type: biochemical, Clostridium thermocellum; settings: for IC50/IC50 TbCet1, CthTTM: ratio in parentheses
T4 sequence (A3DIJ8 1-156): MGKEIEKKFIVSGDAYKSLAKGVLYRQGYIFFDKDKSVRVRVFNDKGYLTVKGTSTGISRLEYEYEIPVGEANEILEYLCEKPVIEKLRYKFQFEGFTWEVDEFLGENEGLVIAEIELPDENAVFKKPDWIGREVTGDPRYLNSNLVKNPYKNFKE

Lef4 = biological target: T5, Lef4 (Autographa californica nuclear polyhedrosis virus, UniProt P41477); assay: TLC assay for 32Pi release from [γ-32P]ATP, Lef4; type: biochemical, Autographa californica nucleopolyhedrovirus (AcNPV); settings: for IC50/IC50 TbCet1, Lef4: ratio in parentheses;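 as to all read-outs here: Lef4 RNA triphosphatase cleaving radiolabelled ATP over 10 min at 37°C, hydrolysis set relative to inhibitor-free 5% DMSO controls, comparisons made against TbCet1 tested the same way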
T5 construct: the N-terminal RTPase domain (aa 1 to 236) of AcNPV Lef4 capping enzyme; HisSmt3 (N, cleaved yes); made in house; host or cells: Escherichia coli

CthTTM [4] = assay: TLC assay for 32Pi release from [γ-32P]ATP, CthTTM; type: biochemical, Clostridium thermocellum
TbCet1 [5] = biological target: T3, TbCet1; set-up: Recombinant full-length T. brucei RTPase TbCet1; HisSmt3 (N, cleaved yes); made in house; host or cells: Escherichia coli; method as in PMID 14525979; settings: ATP substrate Km 25 µM; read-out: Ki, competitive inhibitor of TbCet1; cited from earlier work
[6] = tested on: Trypanosoma cruzi amastigotes; set-up: method as in PMID 25880257; settings: cited from earlier work
Leishmania amazonensis = tested on: Leishmania amazonensis; set-up: method as in PMID 25880257; settings: cited from earlier work
procyclic T. brucei = assay: cell proliferation of cultured procyclic T. brucei; type: cell-based, Trypanosoma brucei; settings: 10 µM; preliminary studies, data not shown
[7] = read-out: IC50 TbCet1 by 32P assay
[8] = read-out: IC50 by HTS assay, colorimetric phosphate release from ATP, Mn2+
[9] = 50 nM Lef4, 37°C, read-out: IC50 Lef4
[10] = 7 nM MimiCE, 37°C, read-out: IC50 MimiCE
[11] = 500 nM CthTTM, 37°C, read-out: IC50 CthTTM
[12] = 25 nM SceCet1, 30°C, read-out: IC50 SceCet1

T5 sequence (P41477 1-236): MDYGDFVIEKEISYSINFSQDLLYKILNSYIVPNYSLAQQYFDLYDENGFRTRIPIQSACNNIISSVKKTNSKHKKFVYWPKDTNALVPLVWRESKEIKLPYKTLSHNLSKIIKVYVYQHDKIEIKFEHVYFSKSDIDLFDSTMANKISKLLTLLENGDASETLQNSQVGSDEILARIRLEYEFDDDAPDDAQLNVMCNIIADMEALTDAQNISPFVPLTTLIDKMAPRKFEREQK
T1 sequence (Q5UQX1 1-237): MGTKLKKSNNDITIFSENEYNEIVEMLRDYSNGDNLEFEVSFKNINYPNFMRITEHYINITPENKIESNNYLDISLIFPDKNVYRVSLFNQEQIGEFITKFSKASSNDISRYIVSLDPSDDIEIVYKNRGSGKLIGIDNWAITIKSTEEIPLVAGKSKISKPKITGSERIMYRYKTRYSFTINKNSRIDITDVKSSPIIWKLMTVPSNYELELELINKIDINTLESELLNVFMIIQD
T2 sequence (O13297 241-539): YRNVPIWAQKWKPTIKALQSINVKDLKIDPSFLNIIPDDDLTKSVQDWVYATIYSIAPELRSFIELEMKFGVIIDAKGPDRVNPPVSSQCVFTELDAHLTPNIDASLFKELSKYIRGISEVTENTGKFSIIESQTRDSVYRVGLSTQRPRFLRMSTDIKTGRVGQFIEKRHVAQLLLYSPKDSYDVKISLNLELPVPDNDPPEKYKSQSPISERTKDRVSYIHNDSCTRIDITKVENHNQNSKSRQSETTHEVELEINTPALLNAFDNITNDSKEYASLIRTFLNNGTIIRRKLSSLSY

Compound | IC50/IC50 TbCet1, MimiCE (MimiCE) | IC50/IC50 TbCet1, SceCet1 (SceCet1) | IC50/IC50 TbCet1, CthTTM (CthTTM [3]) | IC50 (Lef4; [9]) [µM] | IC50/IC50 TbCet1, Lef4 (Lef4) | IC50 (MimiCE; [10]) [µM] | IC50 (SceCet1) [µM] | IC50 (TbCet1 [1]; IC50 TbCet1 by 32P assay) [µM] | IC50 (TbCet1 [2]) [µM] | other results
O=C(CCO[C@@H]1O[C@H](CO)[C@@H](O)[C@H](O)[C@H]1O)c1ccc(O)cc1 [Compound 2B, 3-O-(4-hydroxyphenylpropanone)-1-glucopyranoside] | 182 | 62 | 44 | 150 | 227 | – | – | – | – | fold lower potency against MimiCE than against TbCet1 (MimiCE): 180 fold; IC50 (MimiCE; read-out: IC50 MimiCE, 7 nM MimiCE, 37°C): 120 µM; fold lower potency against SceCet1 than against TbCet1 (SceCet1): 62 fold; IC50 (SceCet1; read-out: IC50 SceCet1, 25 nM SceCet1, 30°C): 41 µM; IC50 (TbCet1 [1]; [7]): 0.66 µM; IC50 (TbCet1 [2]; [8]): 1.1 µM; fold lower potency against CthTTM than against TbCet1 (CthTTM [3]): 44 fold; IC50 (CthTTM [3]; read-out: IC50 CthTTM, 500 nM CthTTM, 37°C): 29 µM
O=C(CCO)c1ccc(O)cc1 [Compound 5, 3-hydroxy-1-(4-hydroxyphenyl)propan-1-one] | 131 | – | 14 | – | 250 | 84 | > 500 | 0.64 | 0.63 | activity against SceCet1 (in words) (SceCet1): no effect; IC50 (CthTTM [3]; [11]): 9.2 µM; IC50 (Lef4): 160 µM
O=C(/C=C/c1ccc(O)c(O)c1)O[C@H](Cc1ccc(O)c(O)c1)C(=O)O [Compound 3A, rosmarinic acid] | – | – | – | – | – | – | – | 0.12 | 0.05 | –
O=C(C=Cc1ccccc1)OC1C=C(C(=O)O)CC(OC(=O)C=Cc2ccccc2)C1OC(=O)C=Cc1ccccc1 (stereo not shown) [Compound 6B, 3,4,5-tricinnamoylshikimic acid] | 13 | – | – | 10 | 7 | 19 | – | – | – | activity against SceCet1 (in words) (SceCet1): inactive; IC50 (SceCet1; [12]): > 500 µM; IC50 (TbCet1 [1]; [7]): 1.5 µM; fold lower potency against CthTTM than against TbCet1 (CthTTM [4]): 100 fold; IC50 (CthTTM [4]; 500 nM CthTTM, 37°C): 150 µM; IC50/IC50 TbCet1, CthTTM (CthTTM [4]; ratio in parentheses): 100
O=C(O)C1OC(Oc2c(-c3ccc(O)c(O)c3)oc3cc(O)cc(O)c3c2=O)C(O)C(O)C1O (stereo not shown) [Compound 4A, miquelianin] | 106 | 239 | 133 | – | 161 | 19 | 43 | 0.18 | 0.18 | IC50 (CthTTM [3]): 24 µM; IC50 (Lef4): 29 µM
pentagalloylgalloylglucose [tannic acid] | – | – | – | – | – | – | – | – | – | IC50 (TbCet1 [2]; read-out: IC50 TbCet1, small-scale test library screens performed here and previously [37]): 0.06 µM
O=P(O)(O)OP(=O)(O)OP(=O)(O)O [Tripolyphosphate] | – | – | – | – | – | – | – | – | – | Ki (TbCet1 [5]): 1.4 µM
O=C(/C=C/c1ccc(O)c(O)c1)O[C@@H]1CC(O)(C(=O)O)C[C@@H](OC(=O)/C=C/c2ccc(O)c(O)c2)C1O (stereo partly shown) [Compound 1B, 3,5-O-dicaffeoylquinic acid] | – | – | – | – | – | – | – | – | – | activity against Trypanosoma cruzi amastigotes [6]: inactive; IC50 (TbCet1 [1]; [7]): 0.07 µM; activity against Leishmania amazonensis (Leishmania amazonensis): inactive; IC50 (TbCet1 [2]; [8]): 0.04 µM
Oc1cc(O)c2c(c1)O[C@H](c1ccc(O)c(O)c1)[C@H](O)C2 [Compound 4C, epicatechin] | 40 | 35 | 104 | – | 136 | 10 | 8.7 | 0.25 | 0.26 | IC50 (CthTTM [3]; [11]): 26 µM; IC50 (Lef4): 34 µM
O=c1c(O)c(-c2cc(O)c(O)c(O)c2)oc2cc(O)cc(O)c12 [Compound 4B, myricetin] | – | – | – | – | – | – | – | 0.36 | 0.23 | –
O=C(OC[C@H]1O[C@@H](OC(=O)c2cc(O)c(O)c(O)c2)[C@H](OC(=O)c2cc(O)c(O)c(O)c2)[C@@H](OC(=O)c2cc(O)c(O)c(O)c2)[C@@H]1OC(=O)c1cc(O)c(O)c(O)c1)c1cc(O)c(O)c(O)c1 [Compound 2A, pentagalloylglucose] | – | – | – | – | – | – | – | 0.046 | 0.04 | IC50 (MimiCE): 5.1 µM; IC50 (SceCet1; read-out: IC50 SceCet1): 3.2 µM; IC50 (Lef4): 59 µM
O=C(/C=C/c1ccc(O)c(O)c1)O[C@@H]1C[C@](OC(=O)/C=C/c2ccc(O)c(O)c2)(C(=O)O)C[C@@H](OC(=O)/C=C/c2ccc(O)c(O)c2)[C@H]1OC(=O)/C=C/c1ccc(O)c(O)c1 [Compound 1A, 1,3,4,5-O-tetracaffeoylquinic acid] | 108 | 546 | 846 | 5.7 | 438 | 1.4 | 7.1 | 0.013 | 0.02 | fold lower potency against MimiCE than against TbCet1 (MimiCE): 110 fold; fold lower potency against SceCet1 than against TbCet1 (SceCet1): 550 fold; fold lower potency against CthTTM than against TbCet1 (CthTTM [3]): 850 fold; IC50 (CthTTM [3]; [11]): 11 µM; fold lower potency against Lef4 than against TbCet1 (Lef4): 440 fold; effect on cell proliferation (procyclic T. brucei): no effect
O=C(O[C@@H]1C[C@@](O)(C(=O)O)C[C@@H](O)[C@@H]1O)c1cc(O)c(O)c(O)c1 [Compound 1O, 5-galloylquinic acid] | – | 0.08 | – | > 500 | – | – | 10 | 125 | – | IC50 (MimiCE): > 500 µM; activity against MimiCE (in words) (MimiCE): no activity; IC50 (CthTTM [3]): > 500 µM; activity against CthTTM (in words) (CthTTM [3]): no activity; activity against Lef4 (in words) (Lef4): no activity
O=C(/C=C/c1ccc(O)cc1)OC1[C@H](O)CC(O)(C(=O)O)C[C@H]1O (stereo partly shown) [Compound 1N] | – | – | – | > 500 | – | – | – | 25 | – | IC50 (MimiCE): > 500 µM; IC50 (SceCet1; [12]): > 500 µM; IC50 (CthTTM [3]; [11]): > 500 µM
